Reference: US20200375975A1, “Treatment of Renal Cell Carcinoma with Lenvatinib and Everolimus” (Eisai R&D Management Co., Ltd., priority 2016, published 2020)

Key:
[1] = cited from earlier work
[2] = test system: patients with unresectable advanced or metastatic renal cell carcinoma (RCC); experiment: Same Phase 2 trial: laboratory abnormalities, Grade 3-4; assay type: in vivo, human; conditions: combo (head prints 10 mg+5 mg), LENVIMA 24 mg, everolimus 10 mg
Excerpt: Table 4 provides a summary of laboratory abnormalities observed in the patients in the RCC trial described in Example 1.

[3] = test system: patients with unresectable advanced or metastatic renal cell carcinoma (RCC); experiment: Same Phase 2 trial: adverse reactions (CTCAE grades), once daily dosing; conditions: LENVIMA 24 mg;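 note: adverse events are any unwanted sign, symptom, abnormal lab finding or disease occurring in time with treatment, whether or not drug-related, and CTCAE grade expresses their severity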
Experimental: The CTCAE provides a grading (severity) scale for each adverse event term. […] The CTCAE grade refers to the severity of the AE.
The safety data described below are derived from the trial described in Example 1, which randomized (1:1:1) patients with unresectable advanced or metastatic renal cell carcinoma (RCC) to LENVIMA® 18 mg+everolimus 5 mg (n=51), LENVIMA® 24 mg (n=52), or everolimus 10 mg (n=50) once daily.

[4] = test system: patients with unresectable advanced or metastatic renal cell carcinoma (RCC); experiment: Phase 2 trial in RCC after one prior VEGF-targeted treatment: efficacy (PFS, OS, ORR), investigator assessment, RECIST 1.1; LENVIMA 18 mg+everolimus 5 mg vs LENVIMA 24 mg vs everolimus 10 mg; conditions: combo 18 mg+5 mg
Experimental: A multicenter, randomized, open-label, trial was conducted to determine the safety and efficacy of lenvatinib administered alone or in combination with everolimus in subjects with unresectable advanced or metastatic renal cell carcinoma (RCC). The trial consisted of a Phase 1b dose finding and a Phase 2 portion. The Phase 2 portion enrolled a total of 153 patients with unresectable advanced or metastatic RCC following one prior VEGF-targeted treatment. Patients were required, inter alia, to have histological confirmation of predominant clear cell RCC, radiographic evidence of disease progression according to Response Evaluation Criteria in Solid Tumors Version 1.1 (RECIST), one prior VEGF-targeted therapy, and Eastern Cooperative Oncology Group (ECOG) Performance Status of 0 or 1.
Patients were randomly allocated to one of 3 arms: (i) LENVIMA® (mesylate salt of lenvatinib) 18 mg+everolimus 5 mg, (ii) LENVIMA® 24 mg, or (iii) everolimus 10 mg, using a 1:1:1 ratio. Patients were stratified by hemoglobin level (≤13 g/dL vs. >13 g/dL for males and ≤11.5 g/dL vs >11.5 g/dL for females) and corrected serum calcium (≥10 mg/dL vs. <10 mg/dL).
The primary efficacy outcome measure, based on investigator assessed tumor response, was progression-free survival (PFS) of the LENVIMA® plus everolimus arm vs. the everolimus arm and of the LENVIMA® arm vs. the everolimus arm. Other efficacy outcome measures included investigator-assessed overall survival (OS) and objective response rate (ORR).
Tumor assessments were evaluated according to RECIST.

rats = conditions: rat, in vivo, po; cited from earlier work
rabbits = conditions: rabbit, in vivo, po; cited from earlier work
[5] = combo 18 mg+5 mg, everolimus 10 mg
[6] = everolimus 10 mg, cutoff Jul. 31, 2015
[7] = everolimus 10 mg, cutoff Jun. 13, 2014

For COc1cc2nccc(Oc3ccc(NC(=O)NC4CC4)c(Cl)c3)c2cc1C(N)=O [LENVIMA ®, 4-[3-chloro-4-(N′-cyclopropylureido)phenoxy]-7-methoxyquinoline-6-carboxamide methanesulfonate], the “solubility in ethanol (dehydrated)” value ([1]; ethanol (dehydrated)) is given as “practically insoluble”, the solubility in water ([1]; water) is given as “slightly soluble” and the “Alkaline phosphatase increased, Grades 3-4” value [2] is given as 0%. The “Aspartate aminotransferase (AST) increased, Grades 3-4” value [2] was 4%, the “Hemoglobin decreased, Grades 3-4” value [2] was 4% and the “Hyperglycemia, Grades 3-4” value [2] was 8%. For the same compound, the “Hyperkalemia, Grades 3-4” value [2] was 2%, the “Hypokalemia, Grades 3-4” value [2] was 8% and the “Hyponatremia, Grades 3-4” value [2] was 6%. The “Hypophosphatemia, Grades 3-4” value [2] was 4%, the “Lipase increased, Grades 3-4” value [2] was 10% and the “Lymphocyte count decreased, Grades 3-4” value [2] was 4%. The “Platelet count decreased, Grades 3-4” value [2] was 2%, the “Hypocalcemia, Grades 3-4” value ([2]; listed as LENVIMA®, methanesulfonate) was “no patients” and the “arterial thromboembolic events, Grade 3 or greater” value ([3]; everolimus 10 mg) was 8%. The “QT/QTc interval prolongation, Grade 3 or greater events” value ([3]; combo 18 mg+5 mg) was “No Grade 3 or greater events”, the fatal hemorrhage cases ([3]; combo 18 mg+5 mg) was “one case of fatal intracranial hemorrhage” and the “Arthralgia/myalgia, All Grades” value [3, 5] was 56%. The “Arthralgia/myalgia, Grades 3-4” value [3, 5] was 4%, the “Confusional state, All Grades” value [3, 5] was 4% and the “Confusional state, Grades 3-4” value [3, 5] was 2%. For the same compound, the “Cough, All Grades” value [3, 5] was 17%, the “Cough, Grades 3-4” value [3, 5] was 2% and the “Decreased appetite, All Grades” value [3, 5] was 58%. For the same compound, the “Decreased appetite, Grades 3-4” value [3, 5] was 4%, the “Decreased weight, All Grades” value [3, 5] was 50% and the “Decreased weight, Grades 3-4” value [3, 5] was 6%. The “Dehydration, All Grades” value [3, 5] was 2%, the “Dehydration, Grades 3-4” value [3, 5] was 0% and the “Dysphonia, All Grades” value [3, 5] was 37%. For the same compound, the “Dysphonia, Grades 3-4” value [3, 5] was 0%, the “Dyspnea, All Grades” value [3, 5] was 25% and the “Dyspnea, Grades 3-4” value [3, 5] was 2%. The “Epistaxis, All Grades” value [3, 5] was 8%, the “Epistaxis, Grades 3-4” value [3, 5] was 0% and the “Fatigue, All Grades” value [3, 5] was 52%. The “Headache, Grades 3-4” value [3, 5] was 6%, the “Insomnia, All Grades” value [3, 5] was 15% and the “Insomnia, Grades 3-4” value [3, 5] was 0%. The “Musculoskeletal chest pain, All Grades” value [3, 5] was 15%, the “Musculoskeletal chest pain, Grades 3-4” value [3, 5] was 4% and the “Pruritus, All Grades” value [3, 5] was 6%. For the same compound, the “Pruritus, Grades 3-4” value [3, 5] was 0%, the “Pyrexia, All Grades” value [3, 5] was 10% and the “QT/QTc interval prolongation, patients” value [3, 5] was 6%. The “Rash, All Grades” value [3, 5] was 15%, the “Rash, Grades 3-4” value [3, 5] was 0% and the “Renal failure events, All Grades” value [3, 5] was 10%. For the same compound, the “Renal failure events, Grades 3-4” value [3, 5] was 6%, the “Vomiting, Grades 3-4” value [3, 5] was 4% and the “Duration of response, months, median (95% CI)” value ([4]; everolimus 10 mg) was 7.5 (3.8, NE) months. For the same compound, the “Number of complete responses (%)” value ([4]; everolimus 10 mg) was 0 n (%), the “Number of partial responses (%)” value ([4]; everolimus 10 mg) was 14 (27) n (%) and the “Number of progressive disease (%)” value ([4]; everolimus 10 mg) was 3 (6) n (%). The “Number of stable disease (%)” value ([4]; everolimus 10 mg) was 27 (52) n (%), the “Median OS in months (95% CI), updated analysis” value [4, 6] was 19.1 (13.6, 26.2) months and the “Overall Survival (updated analysis): Number of deaths, n (%)” value [4, 6] was 34 (65) n (%). The “Median OS in months (95% CI)” value [4, 7] was 18.4 (13.3, NE) months, the “Median PFS in months (95% CI)” value [4, 7] was 7.4 (5.6, 10.2) months and the “Overall Survival: Number of deaths (%)” value [4, 7] was 26 (50) n (%). For the same compound, the “PFS compared with the everolimus arm (in words)” value ([4]; vs everolimus 10 mg) was “improvement”.
For COc1cc2nccc(Oc3ccc(NC(=O)NC4CC4)c(Cl)c3)c2cc1C(N)=O [lenvatinib, 4-(3-chloro-4(cyclopropylaminocarbonyl)aminophenoxy)-7-methoxy-6-quinolinecarboxamide], the embryofetal toxicity findings (rats) is listed as “embryotoxicity, fetotoxicity, and teratogenicity” and the embryofetal toxicity findings (rabbits) is listed as “embryotoxicity, fetotoxicity, and teratogenicity”.
